Data: patent US20240166641A1, “HETEROCYCLES AND USES THEREOF” (Kumquat Biosciences Inc., priority 2021, published 2024)

Key:
[1] = Rat PK PO (oral pharmacokinetics, Compound A vs. Reference CMPD); assay type: in vivo; details: identical oral dosing
Experimental: (§1) Furthermore, an AUCfinal for Compound A was measured to be 356% that of the Reference CMPD measured in the same manner and at the same time in the same mouse model. […] Furthermore, an AUCfinal for Compound A was measured to be 224% that of the Reference CMPD measured in the same manner and at the same time in the same rat model.

[2] = mouse PK PO (oral pharmacokinetics, Compound A vs. Reference CMPD); assay type: in vivo; details: identical oral dosing
Experimental: as §1

B16F10 cells [3] = test: Tumor infiltrating lymphocyte exhaustion assay; assay type: in vivo, mouse; details: Day 7 post dosing, B16F10 tumors in C57BL/6 mice
Excerpt: The same mouse model is utilized to assess the amount of tumor infiltrating lymphocytes when treated with or without an exemplary compound A of the present disclosure. C57BL/6 mice were implanted with 5*10^5 B16F10 cells formulated in Matrigel via the subcutaneous route. After tumors reached a size of 50-150 mm^3, mice were randomized. 7 days post randomization, tumor cells were processed on a GentleMACS octo dissociator and stained for exhaustion markers using a panel of antibodies: Live/Dead, CD45.1, CD8, TIM-3, PD-1, SLAMF6, CD11b, CD38. In parallel, splenocytes were stained with the same cocktail of antibodies and analyzed by flow cytometry. […] PTPN2 inhibitors are tested in the described TIL exhaustion assay to measure modulation of exhaustion in the tumor microenvironment.

B16F10 cells [4] = test: In vivo efficacy in B16F10 mouse tumor model; details: B16F10 in female C57BL/6 mice, oral BID, 100 or 300 mg/kg/dose
Experimental: Cells are grown to passage 3 in vitro. A total of 1 to 5×10^5 viable B16F10 cells are inoculated subcutaneously into the right flank of female C57BL/6 mice (7-12 weeks old) on Day 0. The injection volume is 0.1 mL and is composed of a 1: 1 mixture of S-MEM and Matrigel® (Corning, NY, USA). The mean tumor volume (TV) at randomization is approximately 100-200 mm^3. Following randomization, treatments are initiated on the same day. Dosing of mice is conducted orally, twice a day (BID). Mice are dosed (100 mg/kg/dose or 300 mg/kg/dose) with a compound described herein or vehicle controls. Tumor volume is calculated three times weekly. Measurements of the length (L) and width (W) of the tumor are taken via electronic caliper and the volume is calculated according to the following equation: V=L×W^2/2. Tumor growth inhibition (TGI) is calculated as TGI=1−(Mean TV Timepoint(Treatment)/MeanTV Timepoint (Vehicle)) for each timepoint that tumor volumes are measured and depicted in FIG. 3.

[5] = system: C57B3L/6 mouse primary T cells; test: T-cell activation: CD25 expression on primary T cells stimulated with anti-CD3/CD28; assay type: cell-based; details: 10 uM compound, primary T cells stimulated with antibodies to CD3 and CD28
Experimental: The increase of T cell activation and most importantly T cell function is a strategy for novel immune oncology approaches to promote tumor immunity. In vitro assays using wildtype C57B3L/6 mouse primary T cells are commonly used to assess the impact of compound on T cell activation and function. To assess the ability of compounds disclosed here (e.g., PTPN2 inhibitors) to stimulate T cell activation, primary T cells stimulated with antibodies to CD3 and CD28 are treated with or without exemplary compounds (at 10 uM) disclosed herein are stained with antibodies directed to T-cell activation markers, such as CD25. Additional markers including without limitation CD69, SLAMF6, TIM3, and PD1 can also be employed as a proxy for T cell activation.

PTPN2 = biological target: T1, PTPN2 (Homo sapiens, UniProt P17706); test: Phosphatase activity assay (Bio-Biochem-DiFMUP), PTPN2; assay type: biochemical; details: DiFMUP substrate, room temperature
T1 sequence (P17706 1-415): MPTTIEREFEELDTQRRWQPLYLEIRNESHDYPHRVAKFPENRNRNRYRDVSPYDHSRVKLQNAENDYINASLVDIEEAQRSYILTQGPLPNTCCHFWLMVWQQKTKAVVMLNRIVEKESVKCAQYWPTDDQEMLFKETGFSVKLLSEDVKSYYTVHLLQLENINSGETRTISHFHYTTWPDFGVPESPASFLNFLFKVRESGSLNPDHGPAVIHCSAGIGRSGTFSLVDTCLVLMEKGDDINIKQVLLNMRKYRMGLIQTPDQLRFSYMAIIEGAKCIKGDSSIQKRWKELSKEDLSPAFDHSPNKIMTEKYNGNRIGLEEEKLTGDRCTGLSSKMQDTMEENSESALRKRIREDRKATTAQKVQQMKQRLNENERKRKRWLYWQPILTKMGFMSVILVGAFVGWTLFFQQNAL
Method in brief: (§2)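 Buffer was 50 mM Bis-Tris pH 6.3, 2 mM EDTA, 5 mM DMH, with 10 μM FDP or DiFMUP substrate, enzyme added last, at room temperature. Fluorescent product was read continuously for 15–30 min (DiFMU ex 360/em 450 nm; FMP ex 440/em 530 nm). Initial rates against 10-point inhibitor series were fitted with a 4-parameter equation to give IC50.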

PTP1B = biological target: T2, PTP1B (Homo sapiens, UniProt P18031); test: Phosphatase activity assay (Bio-Biochem-DiFMUP), PTP1B; assay type: biochemical; details: DiFMUP substrate, room temperature
T2 sequence (P18031 1-435): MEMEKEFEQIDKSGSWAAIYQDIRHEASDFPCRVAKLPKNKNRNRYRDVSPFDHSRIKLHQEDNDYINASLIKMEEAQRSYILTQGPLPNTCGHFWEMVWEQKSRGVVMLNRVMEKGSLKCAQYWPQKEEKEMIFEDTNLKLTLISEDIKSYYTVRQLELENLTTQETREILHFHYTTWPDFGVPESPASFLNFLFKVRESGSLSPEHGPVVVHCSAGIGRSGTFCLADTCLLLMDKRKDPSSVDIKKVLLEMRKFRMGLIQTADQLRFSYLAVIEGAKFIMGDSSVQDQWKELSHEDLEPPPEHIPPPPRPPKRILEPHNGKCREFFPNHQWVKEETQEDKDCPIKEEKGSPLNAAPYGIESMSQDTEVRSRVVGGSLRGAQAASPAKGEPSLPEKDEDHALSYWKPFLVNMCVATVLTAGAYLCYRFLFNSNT
Method in brief: as §2

mouse C57BL/6 T cells = test: pSTAT1 signaling in IFNα-stimulated T cells, flow cytometry; assay type: cell-based; details: T-cell, 10 uM compound, T cells stimulated for 5 hours by IFNα, read-out: % pSTAT1 in cells treated with subject compounds relative to negative control (DMSO)
Experimental: IFNα signaling in mouse C57BL/6 T cells promotes activation of multiple signaling pathways associated with antitumor responses. A key target of this signaling is phosphorylation of the transcription factor STAT1. […] T cells are stimulated for 5 hours by IFNα in the presence or absence of exemplified compounds disclosed herein (e.g., PTPN2 inhibitors) and stained intracellularly with antibodies for phosphorylated STAT1 and then analyzed by flow cytometry. Enhancement of phosphorylation of STAT1 is read out as a percentage over the DMSO control.

[6] = system: B16F10 mouse melanoma cells; test: MHC expression associated with IFNγ signaling, flow cytometry; assay type: cell-based; details: B16-F10, 3 uM compound, 48 hours, normalized to DMSO/with IFNγ control, read-out: % MHC in cells treated with Compound at 3 uM relative to negative control (DMSO)
Experimental: B16F10 mouse melanoma cells (ATCC Cat #CRL-6475, Manassas, VA) are seeded at approximately a density of 500 cells per well in a 384-well clear bottom plate (Corning Cat #3765, Corning, 5 NY) in 25 μL total volume of DMEM+10% FBS (Sigma Cat #D6429 and Sigma Cat #F4135, St. Louis, MO). Cells are allowed to adhere overnight at 37° C.+5% CO2. On the following day, 12.5 μL of mouse IFNγ (RD systems Cat #485-MI/CF, Minneapolis, MN) is added to half of the plate (columns 13-24) at a concentration of 2 ng/mL for a final assay concentration of 0.5 ng/mL of IFNγ. Media only (12.5 μL of DMEM+10% FBS) is added to the remainder of the 10 plate (columns 1-12). Next, compounds resuspended in DMSO (Sigma Cat #D2650) at 100 mM are diluted in semi-log dilutions in DMSO ranging from 100 mM to 0.001 mM and DMSO only controls are included. The compound/DMSO dilutions are further diluted 1:250 in DMEM+10% FBS, and 12.5 μL of these dilutions are added in triplicates to cells of both treatment arms (with and without IFNγ). Compounds are only dosed in the inner 240 wells, avoiding the outer 2-well perimeter of the plate to minimize edge effects. Finally, the plate is loaded into an IncuCyte® S3 Live Cell Analysis System (Essen Bioscience-Sartorius, Ann Arbor, MI) maintained in a 37° C.+5% CO2 incubator, allowed to equilibrate for 2 hours, and treated for 48 hours. MHC levels are measured by flow cytometry using a FITC anti-mouse H-2kb antibody (clone AF6-88.5), and levels are normalized based on DMSO/with IFNγ control. Table 7 below summarizes the percentage in MHC expression in cells treated with or without compounds disclosed herein at a specified concentration.

[7] = Rat PK PO, relative to Reference CMPD of WO2019/246513
[8] = mouse PK PO, relative to Reference CMPD of WO2019/246513

IC50 (PTPN2)	IC50 (PTP1B)	SMILES	% CD25 expression in cells treated with subject compounds relative to negative control (DMSO) [5]	activity at 10 µM (mouse C57BL/6 T cells)	other results
–	–	COc1ccc2cc(O)c(N3CC(=O)NS3(=O)=O)c(F)c2n1 [Compound A]	–	–	% F, Compound A vs. Reference CMPD ((Compound A/Reference CMPD) × 100%) [1, 7]: 208%; AUClast, Compound A vs. Reference CMPD ((Compound A/Reference CMPD) × 100%) [1, 7]: 224%; Cmax, Compound A vs. Reference CMPD ((Compound A/Reference CMPD) × 100%) [1, 7]: 155%; AUCfinal of Compound A as % of that of the Reference CMPD ([1]; rat pharmacokinetic model, relative to Reference CMPD): 224%; % F, Compound A vs. Reference CMPD ((Compound A/Reference CMPD) × 100%) [2, 8]: 195%; AUClast, Compound A vs. Reference CMPD ((Compound A/Reference CMPD) × 100%) [2, 8]: 356%; Cmax, Compound A vs. Reference CMPD ((Compound A/Reference CMPD) × 100%) [2, 8]: 495%; AUCfinal of Compound A as % of that of the Reference CMPD ([2]; mouse pharmacokinetic model, relative to Reference CMPD): 356%; CD38+/CD11b+ “M1” Macrophages (B16F10 cells [3]): increase; TIM3+/PD1+ T cells (B16F10 cells [3]): increase; Tumor volume / tumor growth inhibition (FIG. 3) (B16F10 cells [4]): apparent tumor stasis and shrinkage
≤ 1 µM	≤ 1 µM	O=C1CN(c2c(O)cc3ccc(OC4CCC4)nc3c2F)S(=O)(=O)N1 [Compound 205]	423%	–	–
≤ 1 µM	≤ 1 µM	CC(C)Nc1cc2c(F)c(N3CC(=O)NS3(=O)=O)c(O)cc2n(C)c1=O [Compound 165]	–	139%	–
≤ 1 µM	≤ 1 µM	CC(C)Nc1cc2c(F)c(N3CC(=O)NS3(=O)=O)c(O)cc2n(C2CC2)c1=O [Compound 133]	–	170%	–
≤ 1 µM	≤ 1 µM	O=C1CN(c2c(O)cc3ccc(OC(F)F)nc3c2F)S(=O)(=O)N1 [Compound 197]	436%	196%	activation at 3 µM [6]: > 10%
≤ 1 µM	≤ 1 µM	CC(C)Oc1ccc2cc(O)c(N3CC(=O)NS3(=O)=O)c(F)c2n1 [Compound 192]	375%	183%	–
